Measured values taken from patent publication US20250388572A1, “USE OF HPK1 INHIBITOR IN PREVENTION AND/OR TREATMENT OF HUMAN PATHOGEN INFECTION” (priority 2022, published 2025).
Like-named read-outs stand apart in the source and are kept apart here.

Experiments:
[1] = rat, microsomes, 1 h, 10 µM
Procedure: (§1) The procedure for identifying microsomal metabolites is as follows:
(§2) The compounds (test compounds and their numbers are shown below, among which compounds A1 and B1 are prepared by referring to the relevant method disclosed in CN110396087A) were weighed and dissolved into dimethyl sulfoxide to prepare a 20 mM solution. The compound stock solution was diluted with 50% acetonitrile in water (v/v) to a concentration of 1.0 mM as a working solution. Liver microsomes (20 mg/mL) were diluted to 1.27 mg/mL with 50 mM dipotassium hydrogen phosphate buffer as a liver microsome working solution. Reduced coenzyme was weighed and dissolved in 3307 μL of phosphate buffer (50 mM) to 5.0 mM as a reduced coenzyme working solution. For T=60 minutes samples, 4 μL of test working solution (1.0 mM) was added, followed by 316 μL of liver microsome working solution (1.27 mg/mL), and finally, 80 μL of reduced coenzyme working solution was added to start the reaction. For T=0 minutes samples, 316 μL of liver microsome working solution (1.27 mg/mL) was added and then 80 μL of reduced coenzyme working solution was added to start the reaction, without test solution incubation. After incubation at 37° C. for 60 minutes, 1200 μL of stop solution was added to stop the enzyme reaction. For T=0 minute samples, 4 μL of test working solution (1.0 mM) was added. The sample plate was placed on a vortexer and vortexed at 600 rpm for 5 minutes. Then, the sample plate was centrifuged at 4000 rpm for 10 minutes. The supernatant was removed, mixed, and dried at room temperature with nitrogen. The residue dried with nitrogen was redissolved in 300 μL of 10% acetonitrile (0.1% FA) solvent and then centrifuged at 4000 rpm for 15 minutes. The supernatant was transferred to a detection plate for mass spectrometry. Mass spectrometry was performed using LC/Q-Exactive plus.
(§3) 7-Ethoxycoumarin (10 μM) was selected as a positive control compound and operated in parallel with the compounds.

[2] = cynomolgus macaque, microsomes, 1 h, 10 µM
Procedure: as §1, §2, §3

[3] = human, microsomes, 1 h, 10 µM
Procedure: as §1, §2, §3

[4] = in vivo; conditions: male, Sprague Dawley, rat
Procedure: Six male Sprague Dawley rats were administrated a single dose via intravenous injection (iv, n=3) and oral administration (po, n=3), respectively. Intravenous injection was performed by formulating the compounds into 0.25 mg/ml or 0.5 mg/mL solutions using 10% DMSO/30% PEG400/60% water and administering it at a volume of 2 mL/kg. Oral administration was performed by formulating the compounds into 0.6 mg/ml or 2.0 mg/mL homogeneous suspensions using 0.5% methylcellulose and administering it at a volume of 5 mL/kg.
The pharmacokinetic parameters of the compounds were calculated using the WinNolin non-compartmental model.

[5] = in vivo; conditions: male, cynomolgus monkey
Procedure: Three male Cynomolgus macaques were administrated a single dose via intravenous injection (iv, 1 mg/kg, n=3), followed by oral administration (po, 10 mg/kg, n=3) after washing out for one week. Intravenous injection was performed by formulating the compounds into 1.0 mg/mL solutions using water or 10% DMSO/30% PEG400/water and administering it at a volume of 1 mL/kg. Oral administration was performed by formulating the compounds into 2.0 mg/mL solutions or suspensions using water or 0.5% methylcellulose/1.7 meq 1N hydrochloric acid and administering it at a volume of 5 mL/kg.
The pharmacokinetic parameters of the compounds were calculated using the non-compartmental model.

[6] = test system: hPBMCs; test: Pharmacodynamic evaluation for hPBMCs (IL-2 by ELISA); type: cell-based, human; conditions: 1 uM, 24 hours, CD3/CD28-activated hPBMCs
Procedure: The hPBMCs used in this experiment were purchased from Shanghai AoNeng Biotechnology Co., Ltd. CD3 antibody was pre-coated onto a 96-well plate for future use. Cells were seeded into the 96-well plate at 2×10^6/ml, with 200 μL per well. CD28 antibody was added for activation, and Compound A2 was added at a final concentration of 1 μM. The supernatant was collected after 24 hours of treatment. IL-2 levels were determined by ELISA, and the effects of A2 and CD3/CD28 on the activation of hPBMCs were compared.

[7] = test system: H1N1 (PR8 strain); test: Pharmacodynamic evaluation for H1N1 in mice; type: in vivo, C57BL/6 mice; conditions: 3 mg/kg, oral
Procedure: Six to eight-week-old female SPFC 57BL/6 mice (VitalRiver Laboratory Animal Technology Co., Ltd., SCXK (Beijing) 2016-0006, Beijing version) were infected with H1N1 (PR8 strain) and stimulated intranasally with 1×10^4 TCID50 virus nose drops. Mice were randomly divided into a therapy group and a control group. The therapy group was given 3 mg/kg of A2 orally, and the control group was given an equal amount of blank drug orally. The weight loss of mice in all groups was monitored daily.

[8] = test system: MHV-A59 virus; test: Pharmacodynamic evaluation for MHV, high-dose virus group; type: in vivo, C57BL/6 mice; conditions: 10 mg/kg daily, 2×10^6 PFU; for survival rate: all control mice died
Procedure: The effect of A2 on the prevention and treatment of MHV was investigated.
High-dose virus group: 21 male SPF grade C57BL/6 mice, aged 4 weeks, were divided into three groups: control group, precaution group and therapy group. These mice were anesthetized and then injected intrahepatically (i.h.) with 100 μL of DMEM containing 2×10^6 PFU MHV-A59 virus. The precaution group was given the first dose of A2 at 10 mg/kg 24 hours before the challenge, and the therapy group was given the first dose of A2 at 10 mg/kg 24 hours after the challenge, followed by daily continuous administration, both the precaution group and the therapy group being given a daily dose of 10 mg/kg. The weight change, clinical symptoms of disease and mortality of infected mice were monitored daily.

SMILES: [2H]C([2H])([2H])N1CCC(n2cc(-c3cnc(N)c(OCc4cccc(C#CC(C)(C)O)c4)c3)cn2)CC1 [Compound A2, 4-(3-(((2-amino-5-(1-(1-trideuteriomethylpiperidin-4-yl)-1H-pyrazol-4-yl)pyridin-3-yl)oxy)methyl)phenyl)-2-methylbut-3-yn-2-ol]
- remaining percentage of the parent cores after 60 min [1]: 52.1%
- remaining percentage of the parent cores after 60 min [2]: 29.6%
- remaining percentage of the parent cores after 60 min [3]: 83.9%
- AUC(0-t) ([4]; iv, 1 mg/kg): 247 ng·h/mL
- clearance ([4]; iv, 1 mg/kg): 71 mL/min/kg
- AUC(0-t) ([4]; po, 10 mg/kg): 572 ng·h/mL
- bioavailability ([4]; po, 10 mg/kg): 23.2%
- bioavailability [5]: 18.8%
- AUC(0-t) ([5]; iv, 1 mg/kg): 949 ng·h/mL
- clearance ([5]; iv, 1 mg/kg): 16.7 mL/min/kg
- AUC(0-t) ([5]; po, 10 mg/kg): 1760 ng·h/mL
- IL-2 concentration ratio (stimulated by A2−unstimulated)/(stimulated−unstimulated) [6]: 5.89 fold
- survival rate of H1N1-infected mice [7]: significantly higher than that of the blank control group
- survival rate ([8]; precaution group): 42.86%
- average body weight ([8]; precaution group, day 1): 13.39 g
- average body weight ([8]; precaution group, day 8): 16.34 g
- survival rate ([8]; therapy group): 28.57%
- average body weight ([8]; therapy group, day 1): 12.48 g
- average body weight ([8]; therapy group, day 8): 11.39 g
